For one assay, the target named is T1, γ-secretase (Homo sapiens, UniProt P49768).
T1 construct: Human embryonic kidney (HEK) 293 cells stably transfected with APPsw-lon in pcDNA3.1 vector; endogenous in cells; host or cells: HEK293 cells stably transfected with APPsw-lon (substrate only) in pcDNA3.1
Nature of the assay: Cell based γ-secretase assay (Aβ42 in conditioned media, MSD sandwich immunoassay). The conditions noted are these: HEK 293 cells stably transfected with APPsw-lon; 5 hrs treatment; means of two independent experiments. The method, then: Cell Based γ-Secretase Assay (In Vitro Assay Method)
Human embryonic kidney (HEK) 293 cells stably transfected with APPsw-lon in pcDNA3.1 vector (Invitrogen) were treated with gamma secretase modulator (GSM) compounds (see Table below) for 5 hrs. Aβ in conditioned media was measured using MesoScale Discovery (MSD) technology based sandwich immunoassays. Aβ42 was measured using a pair of labeled antibodies TAG-G2-11 (described in Ida, N. et al., Journal of Biological Chemistry, 1996, 271, p. 22908-22914) and biotin-4G8 (Covance); γ-secretase activity is expressed as the concentration of compound producing 50% inhibition of the enzyme activity. The data presented below in the Table were the means of two independent experiments.

A further assay has as its system Rat CSF Aβ42. In words: Cerebrospinal fluid (CSF) Aβ analysis (in vivo assay method). The conditions noted are these: male CD rats; oral, 30 mg/kg in 20% hydroxypropyl β-cyclodextrin; CSF collected three hours after dosing. The method, then:
Cerebrospinal Fluid (CSF) Aβ Analysis (In Vivo Assay Method)
Male CD rats (100 g; Charles River Laboratories) were orally administered a GSM compound (formulated in 20% hydroxypropyl β-cyclodextin; 5 ml/kg). Three hours later, the animals were euthanized with excess CO2, and CSF was immediately collected from the cisterna magna and frozen on dry ice; only clear samples were analyzed. Rat CSF Aβ42 was analyzed using AlphaLISA Amyloid Assay kits (Perkin-Elmer) according to the manufacturer's instructions. In vivo activity of the tested GSM compounds is expressed as the percentage of Aβ42 reduction in CSF after administration of the compound and is presented in the Table.

At γ-secretase, `COc1cc(-c2noc3c2CCCC3NCc2ccc(F)cc2)ccc1-n1cnc(C)c1` (racemic) showed an IC50 of 131 nM.

In turn, `COc1cc(-c2noc3c2CCCC3N(C)Cc2ccc(F)cc2)ccc1-n1cnc(C)c1` (racemic) returned a concentration for half-maximal inhibition (IC50) against γ-secretase of 319 nM.

For `COc1cc(-c2noc3c2CCCC3NCC(F)(F)F)ccc1-n1cnc(C)c1` (racemic), at γ-secretase, 464 nM corresponded to half-maximal inhibition (IC50).

`COc1cc(-c2noc3c2CCCC3Nc2ccc(F)cc2)ccc1-n1cnc(C)c1` (single isomer, unassigned) [drawing 26, N-(4-Fluorophenyl)-3-(3-methoxy-4-(4-methyl-1H-imidazol-1-yl)phenyl)-4,5,6,7-tetrahydrobenzo[d]isoxazol-7-amine]: at γ-secretase, the IC50 was 403 nM. Moreover, the “% CSF Aβ42 Reduction After 30 mg/kg Dosing” value with Rat CSF Aβ42 is 37%.

The molecule `CNC1CCCc2c(-c3ccc(-n4cnc(C)c4)c(OC)c3)noc21` (racemic) had an IC50 at γ-secretase of 12200 nM.

In turn, `COc1cc(-c2noc3c2CCCC3Nc2ccc(F)cc2)ccc1-n1cnc(C)c1` (single isomer, unassigned) [drawing 25, N-(4-Fluorophenyl)-3-(3-methoxy-4-(4-methyl-1H-imidazol-1-yl)phenyl)-4,5,6,7-tetrahydrobenzo[d]isoxazol-7-amine] showed an IC50 against γ-secretase of 39.4 nM. Further, in the assay with Rat CSF Aβ42, the “% CSF Aβ42 Reduction After 30 mg/kg Dosing” value is recorded as 58%.

For the molecule `COc1cc(-c2noc3c2CCCC3(O)Cc2cc(F)cc(F)c2)ccc1-n1cnc(C)c1` (racemic), half-maximal inhibition at γ-secretase (IC50) was put at 150 nM. That is a sub-micromolar value.

For the molecule `COc1cc(-c2noc3c2CCCC3OCc2cc(F)cc(F)c2)ccc1-n1cnc(C)c1` (racemic) [7-(3,5-Difluorobenzyloxy)-3-(3-methoxy-4-(4-methyl-1H-imidazol-1-yl)phenyl)-4,5,6,7-tetrahydrobenzo[d]isoxazole], the IC50 against γ-secretase amounted to 514 nM.

For `COc1cc(-c2noc3c2CCCC3NCc2cc(F)cc(F)c2)ccc1-n1cnc(C)c1` (single isomer, unassigned) [drawing 34], the half-inhibitory concentration (IC50) against γ-secretase was 29.4 nM. Further, the “% CSF Aβ42 Reduction After 30 mg/kg Dosing” value in the assay with Rat CSF Aβ42 is listed as 20%.

`COc1cc(-c2noc3c2CCCC3c2cc(F)cc(F)c2)ccc1-n1cnc(C)c1` (racemic) [7-(3,5-Difluorophenyl)-3-(3-methoxy-4-(4-methyl-1H-imidazol-1-yl)phenyl)-4,5,6,7-tetrahydrobenzo[d]isoxazole] showed an IC50 against γ-secretase of 113 nM. Besides, in the assay with Rat CSF Aβ42, the “% CSF Aβ42 Reduction After 30 mg/kg Dosing” value is 0%.

Consider `COc1cc(-c2noc3c2CCCC3NCc2cc(F)cc(F)c2)ccc1-n1cnc(C)c1` (single isomer, unassigned) [drawing 33], for which the midpoint of inhibition against γ-secretase, the IC50, lay at 644 nM. Also, the “% CSF Aβ42 Reduction After 30 mg/kg Dosing” value in the assay on Rat CSF Aβ42 worked out at 7%.

The molecule `COc1cc(-c2noc3c2CCCC3NC2CCCCC2)ccc1-n1cnc(C)c1` (racemic) displayed an IC50 against γ-secretase of 311 nM.

Take `COc1cc(-c2noc3c2CCCC3N[C@H](C)c2ccc(F)cc2)ccc1-n1cnc(C)c1` (mixture of isomers): on γ-secretase, the IC50 turned out to be 255 nM.

On γ-secretase, `COc1cc(-c2noc3c2CCCC3Oc2ccc(F)cc2)ccc1-n1cnc(C)c1` (racemic) [7-(4-Fluorophenoxy)-3-(3-methoxy-4-(4-methyl-1H-imidazol-1-yl)phenyl)-4,5,6,7-tetrahydrobenzo[d]isoxazole] displayed an IC50 of 295 nM.

Consider `COc1cc(-c2noc3c2CCCC3(O)c2cc(F)cc(F)c2)ccc1-n1cnc(C)c1` (racemic) [7-(3,5-Difluorophenyl)-3-(3-methoxy-4-(4-methyl-1H-imidazol-1-yl)phenyl)-4,5,6,7-tetrahydrobenzo[d]isoxazol-7-ol], for which the concentration for half-maximal inhibition (IC50) against γ-secretase came out at 189 nM. Also, the “% CSF Aβ42 Reduction After 30 mg/kg Dosing” value with Rat CSF Aβ42 is given as 19%.

On γ-secretase, `COc1cc(-c2noc3c2CCCC3Oc2cc(F)cc(F)c2)ccc1-n1cnc(C)c1` (racemic) showed an IC50 of 205 nM.

As usually defined, the IC50 is the concentration at which inhibition is half-maximal.

The values above are taken from patent US9096582B2, “Gamma secretase modulators” (MERCK SHARP & DOHME CORP, priority 2011, dated 2015).
